The structures appear in SMILES notation.

This experiment has as its target SARS-CoV-2 3CLpro (Severe acute respiratory syndrome coronavirus 2 (2019-nCoV) (SARS-CoV-2), UniProt P0DTD1). The experiment is classed as biochemical.
As a reminder, the IC50 is the point on the concentration scale where inhibition reaches its midpoint. Compound `O=C(Cc1nnc2ccccn12)N(Cc1cccc(Cl)c1)c1ccc(-c2cn[nH]c2)cc1` [Compound 1, N-[(3-chlorophenyl)methyl]-N-[4-(1H-pyrazol-4-yl)phenyl]-2-([1,2,4]triazolo[4,3-a]pyridin-3-yl)acetamide] yielded an IC50 of 365 nM. The same measure, in the same setting: the same measure for `O=C(Cc1cncc2ccccc12)N(Cc1cccc(Cl)c1)c1ccc(-c2cn[nH]c2)cc1` [Compound 2, N-[(3-chlorophenyl)methyl]-2-(4-isoquinolyl)-N-[4-(1H-pyrazol-4-yl)phenyl]acetamide]: 30 nM; for `O=C(Cc1nnc2ccc(F)cn12)N(Cc1cccc(Cl)c1)c1ccc(-c2cn[nH]c2)cc1` [Compound 3, N-[(3-chlorophenyl)methyl]-2-(6-fluoro-[1,2,4]triazolo[4,3-a]pyridin-3-yl)-N-[4-(1H-pyrazol-4-yl)phenyl]acetamide]: 3360 nM; for `O=C(Cc1cnc2ccccn12)N(Cc1cccc(Cl)c1)c1ccc(-c2cn[nH]c2)cc1` [Compound 4, N-[(3-chlorophenyl)methyl]-2-imidazo[1,2-a]pyridin-3-yl-N-[4-(1H-pyrazol-4-yl)phenyl]acetamide]: 1150 nM. Same read-out and setting: the same measure for `O=C(Cc1cnccn1)N(Cc1cccc(Cl)c1)c1ccc(-c2cn[nH]c2)cc1` [Compound 5, N-[(3-chlorophenyl)methyl]-2-pyrazin-2-yl-N-[4-(1H-pyrazol-4-yl)phenyl]acetamide]: 5220 nM; for `O=C(Cc1cccnn1)N(Cc1cccc(Cl)c1)c1ccc(-c2cn[nH]c2)cc1` [Compound 6, N-[(3-chlorophenyl)methyl]-N-[4-(1H-pyrazol-4-yl)phenyl]-2-pyridazin-3-yl-acetamide]: 5000 nM.

On to `O=C(Cc1nnc(-c2ccccc2)o1)N(Cc1cccc(Cl)c1)c1ccc(-c2cn[nH]c2)cc1` [Compound 7, N-[(3-chlorophenyl)methyl]-2-(5-phenyl-1,3,4-oxadiazol-2-yl)-N-[4-(1H-pyrazol-4-yl)phenyl]acetamide], for which the “SARS-CoV-2 IC50 (nM)” value is listed as “Inactive”. The same measure, in the same setting: the same measure for `O=C(Cc1nnc(-c2ccccc2)s1)N(Cc1cccc(Cl)c1)c1ccc(-c2cn[nH]c2)cc1` [Compound 8, N-[(3-chlorophenyl)methyl]-2-(5-phenyl-1,3,4-thiadiazol-2-yl)-N-[4-(1H-pyrazol-4-yl)phenyl]acetamide]: “Inactive”. As for `O=C(Cc1nnc2ccccn12)N(Cc1cc(F)cc(Cl)c1)c1ccc(-c2c[nH]cn2)cc1` [Compound 9, N-[(3-chloro-5-fluoro-phenyl)methyl]-N-[4-(1H-imidazol-4-yl)phenyl]-2-([1,2,4]triazolo[4,3-a]pyridin-3-yl)acetamide], the IC50 turned out to be 71 nM. On the same count and under the same terms, the same measure for `O=C(Cc1nnc2ccc(F)cn12)N(Cc1cc(F)cc(Cl)c1)c1ccc(-c2c[nH]cn2)cc1` [Compound 10, N-[(3-chloro-5-fluoro-phenyl)methyl]-2-(6-fluoro-[1,2,4]triazolo[4,3-a]pyridin-3-yl)-N-[4-(1H-imidazol-4-yl)phenyl]acetamide]: 77 nM; for `O=C(Cc1cnc2ccccn12)N(Cc1cc(F)cc(Cl)c1)c1ccc(-c2c[nH]cn2)cc1` [Compound 11, N-[(3-chloro-5-fluoro-phenyl)methyl]-2-imidazo[1,2-a]pyridin-3-yl-N-[4-(1H-imidazol-4-yl)phenyl]acetamide]: 65 nM. Still for that read-out and setting: the figure for `C[C@H](c1cc(F)cc(Cl)c1)N(C(=O)Cc1nnc2ccccn12)c1ccc(-c2c[nH]cn2)cc1` [Compound 13] is 587 nM; for `C[C@H](c1cc(F)cc(Cl)c1)N(C(=O)Cc1cncc2ccccc12)c1ccc(-c2c[nH]cn2)cc1` [Compound 14] it is 76 nM; for `O=C(Cc1cncc2ccccc12)N(Cc1cc(Cl)ccc1F)c1ccc(-c2c[nH]cn2)cc1` [Compound 15] it is 308 nM.

For the compound `O=C(Cc1cncc2ccccc12)N(Cc1cccc(Cl)c1F)c1ccc(-c2c[nH]cn2)cc1` [Compound 16], the IC50 is 370 nM. Same read-out and setting: the same measure for `O=C(Cc1cncc2ccccc12)N(Cc1cncc(Cl)c1)c1ccc(-c2c[nH]cn2)cc1` [Compound 17]: 101 nM. `COc1ccc(Cl)cc1CN(C(=O)Cc1cncc2ccccc12)c1ccc(-c2c[nH]cn2)cc1` [Compound 18] gave an IC50 of 191 nM. Consider `COc1cc(Cl)cc(CN(C(=O)Cc2cncc3ccccc23)c2ccc(-c3c[nH]cn3)cc2)c1` [Compound 19], for which the IC50 stood at 100 nM. Same read-out and setting: the same measure for `O=C(Cc1nnc2ccccn12)N(Cc1cc(F)ccc1F)c1ccc(-c2c[nH]cn2)cc1` [Compound 22]: 786 nM; for `O=C(Cc1cncc2ccccc12)N(Cc1cc(F)ccc1F)c1ccc(-c2c[nH]cn2)cc1` [Compound 23]: 159 nM; for `O=C(Cc1nnc2ccccn12)N(Cc1cccc(F)c1F)c1ccc(-c2c[nH]cn2)cc1` [Compound 24]: 1300 nM.

`O=C(Cc1cncc2ccccc12)N(Cc1cccc(F)c1F)c1ccc(-c2c[nH]cn2)cc1` [Compound 25]: it took 184 nM to reach half-maximal inhibition (IC50). The same measure, in the same setting: the same measure for `O=C(Cc1cncc2ccccc12)N(Cc1cccc(F)c1)c1ccc(-c2c[nH]cn2)cc1` [Compound 26]: 351 nM. On the same count and under the same terms, the figure for `O=C(Cc1nnc2ccccn12)N(Cc1cc(F)cc(F)c1)c1ccc(-c2c[nH]cn2)cc1` [Compound 27] is 209 nM.

For the compound `O=C(Cc1cncc2ccccc12)N(Cc1cc(F)cc(F)c1)c1ccc(-c2c[nH]cn2)cc1` [Compound 28], the IC50 stood at 53 nM. Still for that read-out and setting: the same measure for `O=C(Cc1cncc2ccccc12)N(Cc1cc(F)cc(Cl)c1)c1ccc(-c2c[nH]cn2)cn1` [Compound 29]: 40 nM. For `CC(c1cc(F)cc(F)c1)N(C(=O)Cc1cncc2ccccc12)c1ccc(-c2c[nH]cn2)cc1` (stereo not shown) [Compound 30], the IC50 was found to be 114 nM. Still for that read-out and setting: the figure for `O=C(Cc1cccnn1)N(Cc1cc(F)cc(F)c1)c1ccc(-c2c[nH]cn2)cc1` [Compound 31] is 506 nM; for `O=C1CNCCN1c1ccc(N(Cc2cc(F)cc(F)c2)C(=O)Cc2cncc3ccccc23)cc1` [Compound 35] it is 481 nM; for `O=C1CN(c2ccc(N(Cc3cc(F)cc(F)c3)C(=O)Cc3cncc4ccccc34)cc2)CCN1` [Compound 36] it is 370 nM. The same measure, in the same setting: the figure for `N#Cc1ccc(N(Cc2cc(F)cc(F)c2)C(=O)Cc2cncc3ccccc23)cc1` [Compound 38] is 1250 nM; for `O=C(Cc1cncc2ccccc12)N(Cc1cncc(C(F)(F)F)c1)c1ccc(-c2c[nH]cn2)cc1` [Compound 39] it is 82 nM; for `O=C(Cc1cncc2ccccc12)N(Cc1cncc(F)c1)c1ccc(-c2c[nH]cn2)cc1` [Compound 40] it is 53 nM. For the compound `Cc1ccc2nnc(CC(=O)N(Cc3cc(F)cc(F)c3)c3ccc(-c4c[nH]cn4)cc3)n2n1` [Compound 41], the IC50 worked out at 604 nM.

Compound `Cc1ccc2nnc(CC(=O)N(Cc3cc(F)cc(Cl)c3)c3ccc(-c4c[nH]cn4)cc3)n2n1` [Compound 42] yielded an IC50 of 250 nM. On the same count and under the same terms, the figure for `O=C(Cc1cccnc1)N(Cc1cc(F)cc(Cl)c1)c1ccc(-c2c[nH]cn2)cc1` [Compound 43] is 188 nM.

`O=C(Cc1cccnc1)N(Cc1cccc(Cl)c1)c1ccc(-c2c[nH]cn2)cc1` [Compound 44] yielded an IC50 of 414 nM. Against the preceding compound, the IC50 is about 2.2-fold higher. In turn, `CC(C)(C)CN(C(=O)Cc1cncc2ccccc12)c1ccc(-c2c[nH]cn2)cc1` [Compound 45] registered an IC50 of 356 nM. The same measure, in the same setting: the figure for `CC(C)CN(C(=O)Cc1nnc2ccccn12)c1ccc(-c2c[nH]cn2)cc1` [Compound 46] is 8100 nM; for `O=C(Cc1nnc2ccccn12)N(Cc1cccc(F)c1)c1ccc(-c2c[nH]cn2)cc1` [Compound 47] it is 621 nM; for `O=C(Cc1cncnc1)N(Cc1cc(F)cc(Cl)c1)c1ccc(-c2c[nH]cn2)cc1` [Compound 48] it is 542 nM. Compound `O=C(Cc1noc2ccccc12)N(Cc1cc(F)cc(Cl)c1)c1ccc(-c2c[nH]cn2)cc1` [Compound 49] had an IC50 of 839 nM. `O=C1NC(CC(=O)N(Cc2cc(F)cc(Cl)c2)c2ccc(-c3c[nH]cn3)cc2)c2ccccc21` (stereo not shown) [Compound 50] showed an IC50 of 30800 nM. Still for that read-out and setting: the same measure for `NC(=O)c1ccc(N(Cc2cc(F)cc(F)c2)C(=O)Cc2cncc3ccccc23)cc1` [Compound 51]: 100 nM. Same read-out and setting: the same measure for `O=C(Cc1cccnn1)N(Cc1cc(F)cc(Cl)c1)c1ccc(-c2c[nH]cn2)cc1` [Compound 52]: 389 nM. The compound `COc1ccc(F)cc1CN(C(=O)Cc1cncc2ccccc12)c1ccc(-c2c[nH]cn2)cc1` [Compound 53] displayed an IC50 of 179 nM. The same measure, in the same setting: the figure for `COc1cc(F)cc(CN(C(=O)Cc2cncc3ccccc23)c2ccc(-c3c[nH]cn3)cc2)c1` [Compound 54] is 90 nM. On the same count and under the same terms, the same measure for `O=C(Cc1cnccn1)N(Cc1cc(F)cc(Cl)c1)c1ccc(-c2c[nH]cn2)cc1` [Compound 55]: 2040 nM. The same measure, in the same setting: the same measure for `O=C(Cc1cncc2ccccc12)N(Cc1cc(F)cc(F)c1)c1ccc(C2=CCNC2)cc1` [Compound 56]: 139 nM; for `O=C(Cc1cncc2ccccc12)N(Cc1cc(F)cc(Cl)c1)c1ccc(C2=CCNC2)cc1` [Compound 57]: 81 nM.

`O=C(Cc1cncc2ccccc12)N(Cc1ccc(Cl)c(F)c1)c1ccc(-c2c[nH]cn2)cc1` [Compound 58] registered an IC50 of 1090 nM. On the same count and under the same terms, the same measure for `O=C1Nc2ccccc2C1CC(=O)N(Cc1cc(F)cc(Cl)c1)c1ccc(-c2c[nH]cn2)cc1` (stereo not shown) [Compound 59]: 6240 nM. For the compound `O=C(Cc1cncc2ccccc12)N(Cc1cncc(F)c1)c1ccc(C2CNC2)cc1` [Compound 60], the IC50 is 193 nM. The same measure, in the same setting: the figure for `O=C(Cc1cncc2ccccc12)N(Cc1cc(F)cc(OC(F)(F)F)c1)c1ccc(-c2c[nH]cn2)cc1` [Compound 61] is 113 nM; for `O=C(Cc1cncc2ccccc12)N(Cc1cc(F)cc(F)c1)c1ccc(C2CNC2)cc1` [Compound 62] it is 69 nM. On the same count and under the same terms, the figure for `CC(C)(C)NC(=O)C(c1cc(F)cc(F)c1)N(C(=O)Cc1cncc2ccccc12)c1ccc(C2=CCNC2)cc1` (stereo not shown) [Compound 63] is 1030 nM; for `CC(C)(C)NC(=O)C(c1cc(F)cc(F)c1)N(C(=O)Cc1cncc2ccccc12)c1ccc(-c2c[nH]cn2)cc1` (stereo not shown) [Compound 64] it is 231 nM. The same measure, in the same setting: the same measure for `O=C(Cc1cncc(Br)c1)N(Cc1cc(F)cc(F)c1)c1ccc(-c2c[nH]cn2)cc1` [Compound 65]: 187 nM.

Source of the values: patent US20240293380A1, “PROTEASE INHIBITORS AND METHODS OF USE” (priority 2021, published 2024).
